# Data as given in patent publication US20230086007A1, “USE OF DENATONIUM BENZOATE AS A SEED TREATMENT FOR CROPS AS BIRD AND/OR INSECT REPELLENT” (KWS SAAT SE & Co. KGaA, priority 2020, published 2023).
# Where “and” joins values, the source holds several entries; their conditions need not be identical. Identical values can stand only once.
# What was measured:
# [1] = system: wireworm of genus Agriotes; assay: Wireworm repellent pot assay on corn in climate chamber; type: in vivo; conditions: climate chamber 18° C. day/12° C. night; eighteen days after sowing
# Method: The denatonium benzoate (Bitrex) was tested in concentrations of 0.5 g/unit (wherein 1 unit=50.000 seeds), 1 g/unit and 5 g/unit, either without any other plant protection product (variants 3 and 4) or with RedigoM (active ingredients 100 g/l Prothioconazole (PRO) and 20 g/l Metalaxyl (MTL); (variants 6-8). Sticker was always Sepiret 9290 red, whereby 30 ml/unit has been applied. Variant 1 is the negative control wherein no treatment of the seeds took place, variant 2 is another control only treated with the sticker. Variant 5 is RedigoM and sticker without Bitrex. Variants 9 and 10 serve as positive control. Beside RedigoM and the sticker, the seeds have been treated with either with Force 20 CS (active ingredient: tefluthrin (TEF); or with Poncho® 600 (active ingredient: clothianidin (CLO). Both Force 20 CS and Poncho® 600 are standard treatments against wireworm infestation. All testing were conducted on corn variety Amavit of KWS SAAT SE & Co. KGaA.
# Testing has been repeated in climate chambers in order to ensure high humidity and moderate temperatures which results in optimal environmental condition for the wireworm. Thereby, a high level of insect pressure on the seeded corn should be simulated. […]
# Eighteen days after sowing the plant biomass (Table 6) as well as seed damage (FIG. 4B; Table 6) were assessed.
# [2] = LC-MS-MS determination of denatonium benzoate in corn plants grown from treated seed; type: in vivo, Zea mays; conditions: for Bitrex concentration: first leaf of corn seedling
# Method: To determine, if denatonium benzoate could be systemic (taken up by the plant), a Liquid Chromatography with tandem mass spectrometry (LC-MS-MS) was performed, which is a powerful analytical technique that combines the separating power of liquid chromatography with the highly sensitive and selective mass analysis capability of triple quadrupole mass spectrometry. Therefore, we used 1) seedlings just after field emergence to determine the content of denatonium benzoate in the complete plant and in the sprout separately (Table 3), as well as 2) middle-aged plants (V6-V8), where the leaves have been investigated (Table 4).
# Beside above experiments the concentration of Bitrex in the first leaf of the seedling have been measured wherein different dosages of Bitrex have been applied to the seed. The higher the application rate, the higher was the Bitrex concentration in the tested leaf tissue.
# [3] = LC-MS-MS determination of Bitrex in leaf tissue of oilseed rape seedlings; type: in vivo, Brassica napus
# Excerpt: Further experiments on system uptake of Bitrex have been conducted also on oilseed rape (Brassica napus). Seeds of Brassica napus have been treated with concentration of Bitrex from 0.15 g/unit to 75 g/unit. Seeds have been sown and leaf samples have been taken 6 days after emergence and 22 days after emergence. By means of Liquid Chromatography with tandem mass spectrometry (LC-MS-MS) as described above Bitrex amount in leaf tissue has been determined with 4 repetition per Bitrex concentration. Leave samples have been prepared as follows: Leaf material has been harvested, cut in small pieces and put in 3-5 ml ethanol. After 45 min vortexing, centrifuging and taking aliquot of 1 ml for further analysis.
structure (smiles),measurement,setting,value
"CC[N+](CC)(CC(=O)Nc1c(C)cccc1C)Cc1ccccc1.O=C([O-])c1ccccc1 [Bitrex, N-Benzyl-2-(2,6-dimethylanilino)-N, N-diethyl-2-oxoethan-1-aminium benzoate]","effect on development of biomass, seed damages and seedling damages",[1],positive effect
same,μg DNB/plant or sprout,"[2]; corn seedlings just after field emergence, complete plants",5.87 μg DNB/plant or sprout
same,concentration in sprouts,"[2]; corn, early stage",200-800 ppb
same,concentration in the complete plant,"[2]; corn, early stage",10-20 ppm
same,Bitrex concentration,[2]; 0.8 g/unit applied to seed,36.8 ng/g
same,Bitrex concentration,[2]; 1 g/unit applied to seed,96.2 ng/g and 88.7 ng/g and 75.2 ng/g and 55.0 ng/g and 70.4 ng/g and 97.1 ng/g
same,Bitrex concentration,[2]; 2 g/unit applied to seed,178.2 ng/g and 155.6 ng/g
same,concentration in leaves,[2]; middle-aged corn plants,5-20 ppb
same,Final Conc.,"[2]; middle-aged corn plants (V6-V8), leaves, sample 14 DNB 0.8g, plants P1-P3, listed as DNB",5.49 ppb/ng/g and 5.34 ppb/ng/g and 5.46 ppb/ng/g
same,Bitrex concentation 22 days after emergence,"[3]; oilseed rape leaf, Bitrex 0.15 g/unit, repetitions 1-4",11.03 ng/g and 10.65 ng/g and 5.58 ng/g and 7.75 ng/g
same,Bitrex concentation 6 days after emergence,"[3]; oilseed rape leaf, Bitrex 7.5 g/unit, repetitions 1-4",354.65 ng/g and 194.60 ng/g and 266.85 ng/g and 251.41 ng/g
same,Bitrex in leaf tissue after 22 days,"[3]; oilseed rape, all applications 0.15-75 g/unit",still detectable but at a low amount
